# Laboratory results published in US9546144B2, “Bifunctional compounds” (University of Pittsburgh—of the Commonwealth System of …, priority 2011, dated 2017).
# What was measured:
# [1] = test system: bone marrow stromal cell line derived from C57BL/6NTac mice; test: in vitro clonogenic radiation survival curves; format: cell-based, mouse; conditions: 100 μM added 10 min after irradiation; control 1.9±0.1, p=0.0444
# Protocol: FIG. 12. In vitro radioprotection and mitigation of bone marrow stromal cells. In vitro survival curves were performed using a bone marrow stromal cell line derived from C57BL/6NTac mice. Cells were incubated in 100 μM MMS350 for one hour before irradiation or was added to the cells 10 min after irradiation. Cells were irradiated to doses ranging from 0 to 8 Gy, plated in 4 well tissue culture plates, incubated for 7 days at 37° C. in a humidified CO2 incubator, and stained with crystal violet. Colonies of greater than 50 cells were counted and analyzed using a linear quadratic model or single-hit, multi-target model.
# The murine C57BL/6 bone marrow stromal cell line (Epperly M W, Sikora C A, Defilippi S, Gretton J E, Greenberger J S. Bone marrow origin of myofibroblasts in irradiation pulmonary fibrosis. Am J Resp Molecular Cell Biology 2003; 29:213-224) and its use in clonogenic radiation survival curves has been described (Epperly M W, Gretton J E, Bernarding M, Nie S, Rasul B, Greenberger J S. Mitochondrial localization of copper/zinc superoxide dismutase (Cu/ZnSOD) confers radioprotective functions in vitro and in vivo. Radiation Research 2003; 160:568-578).
# Cell lines were irradiated at dose rate of 70 cGy per minute using a Cesium Gamma Cell Irradiator according to published methods. […]
# [2] = test system: luc+ bone marrow chimeric C57BL/6 mice; test: migration of luc+ marrow cells to irradiated lungs of luc+ marrow chimeric mice; format: in vivo, mouse; conditions: in drinking water, after second thoracic irradiation dose
# Protocol: FIG. 14. Pulmonary migration of luc+ marrow cells to irradiated lungs of luc+ chimeric mice. Groups of 30 C57BL/6Tac mice were given 10 Gy TBI then 24 hr. later 1×10^7 luc+ bone marrow cells I.V. At day 63, subgroups received 18 Gy thoracic irradiation. […] Mice were serially imaged for luciferase, as described in the methods.
# MMS350 was tested in two mouse models of fibrosis in the C57BL/6J model. In the first system (chimeric mice) C57BL/6 mice were irradiated to a total body dose of 10 Gy, which is known to be lethal for 100% of animals in the absence of bone marrow transplantation. These mice were then transplanted intravenously with luciferase positive C57BL/6J mouse bone marrow. These mice are valuable for measuring the site of hematopoiesis from donor origin marrow since the animals can be imaged for mobilization in a specific imaging system, which detects the luciferase signal. In this assay system, animals are injected with luciferin (the substrate for the enzyme luciferase) bone marrow cells, which contain luciferase (those from the donor marrow strain) metabolize luciferin and produce a […] which is detected in a camera system over the immobilized mice. These same animals can be imaged serially over several weeks-months and followed for migration of luciferase positive cells from bone marrow sites into irradiated sites. […]
smiles,measurement,setting,value
"CC1(C[S+]([O-])CC2(C)COC2)COC1 [compound 3, 3,3′-Sulfinylbis(methylene)bis(3-methyloxetane)]",D0 of the survival curve,[1],2.4±0.3
same,migration of bone marrow cells into the lungs,[2],significantly reduces migration of bone marrow cells into the lungs
